Reference: US9133449B2, “Mutant pyrrolysyl-tRNA synthetase, and method for production of protein having non-natural amino acid integrated therein by using the same” (priority 2007, dated 2015)
“Also recorded” adds a separate entry of the source.

Key:
[1] = target: M. mazei PylRS (wild-type) (Methanosarcina mazei, UniProt Q8PWY1); type: biochemical; conditions: 37 degrees Celsius 1 h; 0.5 M Lys; 100 mM Ac-Lys; 1 mM Boc-Lys; 1 mM Aloc-Lys; 10 mM Nic-Lys; 7 mM Nma-Lys; 3.5 mM Z-Lys; 1 mM pyrrolysine
M. mazei PylRS (wild-type), sequence (Q8PWY1 whole entry E444G, looked up): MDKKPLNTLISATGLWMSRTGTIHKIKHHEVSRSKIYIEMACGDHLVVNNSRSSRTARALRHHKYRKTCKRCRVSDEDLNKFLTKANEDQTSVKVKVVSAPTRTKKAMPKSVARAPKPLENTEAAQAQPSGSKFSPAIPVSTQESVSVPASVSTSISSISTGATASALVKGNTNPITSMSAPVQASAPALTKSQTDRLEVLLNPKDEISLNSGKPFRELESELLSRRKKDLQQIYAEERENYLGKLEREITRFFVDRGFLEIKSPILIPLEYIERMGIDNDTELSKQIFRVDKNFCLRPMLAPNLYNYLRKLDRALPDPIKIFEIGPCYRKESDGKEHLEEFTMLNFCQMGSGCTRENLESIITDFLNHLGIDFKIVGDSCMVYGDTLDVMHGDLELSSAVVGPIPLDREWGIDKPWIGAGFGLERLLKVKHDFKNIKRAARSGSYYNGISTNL

[2] = tested on: GST gene with amber codon (TAG) at the 25th from N terminus, E. coli BL21 (DE3); type: cell-based; conditions: for incorporation into a protein with wild-type PylRS: E. coli cells; for expression of 28-kDa GST protein: mutant PylRS (Y384F) and tRNA^Pyl, 4 mM amino acid
Description: In order to confirm whether amber suppression (amber mutation suppression) occurs in E. coli cells, the glutathione S-transferase (GST) gene whose tyrosine codon at the 25th from N terminus was mutated to the amber codon (TAG) was cloned into a pET system plasmid. On the other hand, the wild-type and a variety of mutant PylRS genes, as well as tRNA^Pyl genes were cloned into a pACYX system plasmid (see FIG. 6). These two expression vectors were transformed to E. coli BL21 (DE3) to statically culture overnight on LB agar medium including kanamycin and ampicillin. […] Incubation was conducted overnight to induce expression before E. coli cells were harvested to detect expressed GST using SDS-PAGE. […] (SEQ ID NO: 17) (m/z=1327.72 Da) (see FIG. 10).
The same plasmid pTK2-1 as Example 1 was used for expressing PylRS mutant with double amino acid substitutions of Y306A and Y384F and tRNA^Pyl in E. coli cells. Incorporation of a lysine derivative into GST having amber codon at 25th from its N-terminus using this plasmid was performed according to the same method as Example 1. Moreover, specific incorporation of AzZLys [purchased from Shinsei Chemical Company Ltd. (Osaka)] into the amber site in GST using the same plasmid was also performed according to the same method as Example 1. Subsequently, crude extract obtained from E. coli cells in which the GST amber gene was expressed was separated with SDS-PAGE and stained. […] Furthermore, purification of GST was performed with the same method as Example 1.

[3] = tested on: lacZ amber gene, HEK c-18 cell
Description: (§1) For expressing PylRS (Y306A, Y384F) mutant and tRNA^P1 in HEK c-18 cell, the system disclosed in the above-mentioned Non-Patent Document 7 was used. Likewise, the mutant gene into which the amber codon was incorporated at the cording region of lac Z gene and GRB2 gene, and the expression system thereof, as disclosed in the above-mentioned Non-Patent Document 7, were used.
First, in the animal cells, optimal concentration of AzLys for site-specific incorporation of AzLys into the protein was determined. In media containing 0, 0.01, 0.025, 0.05, 0.1, 0.25 and 0.5 mM of AzZLys, LacZ protein was expressed from the lacZ amber gene to determine the level of expression (relative value) of LacZ with coloring reaction by LacZ. […] In FIG. 17, WT represents the level of expression (relative value) of wild-type (WT) lacZ without any amber codon in the coding region.

[4] = tested on: GRB2 amber gene, HEK c-18 cell
Description: as §1

GST = conditions: FITC-PP3; ca. 37 degrees Celsius for 1 hour (not at ca. 4 degrees Celsius overnight)
Method: A conjugate of fluorophore and triarylphosphine, and the purified full length GST were linked by Staudinger-Bertozzi reaction. As a conjugate, the conjugate with FITC (hereinafter referred to as FITC-PP3) (purchased from Shinsei Chemical Company Ltd.) was used. […] Linkage reaction was performed under two types of reactive conditions, i.e., at ca. 37 degrees Celsius for 1 hour (lhr) and at ca. 4 degrees Celsius overnight (O/N). Subsequently, these GST were separated by SDS-PAGE to detect fluorescence with UV light. […] As to the Staudinger-Bertozzi reaction, see the above-mentioned Non-Patent Documents 5, 6, etc.

CNc1ccccc1C(=O)NCCCC[C@H](N)C(=O)O [Nma-Lys, N^ε-(N-methyl-anthraniloyl)-L-lysine]
activation of amino acid / esterification of tRNA^Pyl by wild-type PylRS [1]: esterified

CC(=O)NCCCC[C@H](N)C(=O)O [Ac-Lys, N^ε-acetyl-L-lysine]
activation of amino acid / esterification of tRNA^Pyl by wild-type PylRS [1]: esterified

N[C@@H](CCCCNC(=O)OCc1ccccc1)C(=O)O [Z-Lys, N^ε-benzyloxycarbonyl-L-lysine]
activation of amino acid / esterification of tRNA^Pyl by wild-type PylRS [1]: merely weakly activated; also recorded: esterified
production of full length GST protein ([2]; double mutant PylRS (Y384F/Y306A) and tRNA^Pyl, 5 mM Z-Lys): produced
incorporation into a protein with wild-type PylRS [2]: cannot be incorporated into a protein

[N-]=[N+]=Nc1ccccc1COC(=O)NCCCC[C@H](N)C(=O)O [AzZLys, N^ε-Ortho-Azide-Benzyloxycarbonyl-Lysine]
expression of the full length GST ([2]; PylRS mutant Y306A and Y384F and tRNA^Pyl, 1 mM AzZLys): detected merely in the case of the presence of 1 mM AzZLys
suppression efficiency (LacZ expression relative to wild-type lacZ) ([3]; PylRS (Y306A, Y384F) and tRNA^Pyl, 0.05 mM AzZLys): approximately 30 % of WT
concentration at which most efficiently incorporated into the amber site of lacZ ([3]; tested 0, 0.01, 0.025, 0.05, 0.1, 0.25 and 0.5 mM): 0.05 mM
Grb2 protein labeled with fluorescence ([4]; PylRS (Y306A, Y384F), tRNA^Pyl, FITC-PP3): detected merely in the case of aaRS (+), Grb2 (Am), tRNA (+) and a.a. (+)
fluorescence-modified GST (GST): detected merely in the case of the reactive condition at ca. 37 degrees Celsius for 1 hour

CC(C)(C)OC(=O)N[C@@H](CCCCN)C(=O)O [Boc-Lys, tert-butyloxycarbonyl-lysine]
activation of amino acid / esterification of tRNA^Pyl by wild-type PylRS [1]: activated at a concentration of 1 mM, as efficiently as pyrrolysine
expression of 28-kDa GST protein [2]: expressed
incorporation into a protein with wild-type PylRS [2]: could not efficiently be incorporated

C=CCOC(=O)N[C@@H](CCCCN)C(=O)O [Aloc-Lys, allyloxycarbonyl-lysine]
activation of amino acid / esterification of tRNA^Pyl by wild-type PylRS [1]: activated at a concentration of 1 mM, as efficiently as pyrrolysine
expression of 28-kDa GST protein [2]: expressed

C[C@@H]1CC=N[C@H]1C(=O)NCCCC[C@H](N)C(=O)O [pyrrolysine, N^6-[(2R,3R)-3-methyl-3,4-dihydro-2H-pyrrole-2-ylcarbonyl]-L-lysine]
activation of amino acid / esterification of tRNA^Pyl by wild-type PylRS [1]: activates

[N-]=[N+]=Nc1ccc(C[C@H](N)C(=O)O)cc1 [AzF, para-azide-phenylalanine]
Grb2 modified with fluorescence ([4]; AzFRS system, AzFRS also modified with fluorescence concurrently): modified with fluorescence
